Measured values from ChEMBL document CHEMBL1137954, “Carbonic anhydrase inhibitors: inhibition of the tumor-associated isozyme IX with fluorine-containing sulfonamides. The first subnanomolar CA IX inhibitor discovered” (Bioorg Med Chem Lett, 2004).

Assays:
[1] = molecular target: Carbonic anhydrase 9 (Homo sapiens, UniProt Q16790)
Description: Inhibitory activity against human carbonic anhydrase IX

[2] = molecular target: Carbonic anhydrase 2 (Homo sapiens, UniProt P00918)
Description: Inhibitory activity against human carbonic anhydrase II

[3] = molecular target: Carbonic anhydrase 1 (Homo sapiens, UniProt P00915)
Chain of Carbonic anhydrase 1 (P00915 whole entry): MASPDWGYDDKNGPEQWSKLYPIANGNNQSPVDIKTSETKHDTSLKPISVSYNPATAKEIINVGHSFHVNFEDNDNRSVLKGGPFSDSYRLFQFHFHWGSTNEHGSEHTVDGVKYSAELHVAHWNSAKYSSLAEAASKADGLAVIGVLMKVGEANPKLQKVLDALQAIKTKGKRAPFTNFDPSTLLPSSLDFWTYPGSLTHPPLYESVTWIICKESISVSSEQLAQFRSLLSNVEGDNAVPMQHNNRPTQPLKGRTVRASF
Description: Inhibitory activity against human carbonic anhydrase I

| Ki [1] [nM] | Ki [2] [nM] | Ki [3] [nM] | Compound |
| --- | --- | --- | --- |
| 4.3 | 0.7 | 13 | NS(=O)(=O)c1nnc(NS(=O)(=O)c2c(F)c(F)cc(F)c2F)s1 |
| 9.5 | 13 | 980 | NS(=O)(=O)c1ccc(CNC(=O)c2c(F)c(F)cc(F)c2F)cc1 |
| 9.5 | 38 | 1500 | NS(=O)(=O)c1ccccc1NC(=O)c1c(F)c(F)cc(F)c1F |
| 12.6 | 2.1 | 250 | NS(=O)(=O)c1nnc(NC(=O)c2c(F)c(F)cc(F)c2F)s1 |
| 15.2 | 16 | 975 | NS(=O)(=O)c1ccc(NC(=O)c2c(F)c(F)cc(F)c2F)cc1 |
| 10.5 | 1.4 | 270 | Cn1nc(S(N)(=O)=O)s/c1=N\C(=O)c1c(F)c(F)cc(F)c1F |
| 0.8 | 21 | 1700 | NS(=O)(=O)c1cccc(NC(=O)c2c(F)c(F)cc(F)c2F)c1 |
| 7.3 | 12 | 900 | NS(=O)(=O)c1ccc(CCNC(=O)c2c(F)c(F)cc(F)c2F)cc1 |
| 3.2 | 19 | 6300 | NS(=O)(=O)c1ccc(NS(=O)(=O)c2ccc(NC(=O)c3c(F)c(F)cc(F)c3F)cc2)cc1 |

| Compound | Ki [1] [nM] | Ki [2] [nM] | Ki [3] [nM] |
| --- | --- | --- | --- |
| NS(=O)(=O)c1ccc(CNS(=O)(=O)c2c(F)c(F)cc(F)c2F)cc1 | 8.5 | 12 | 860 |
| NS(=O)(=O)c1ccc(CCNS(=O)(=O)c2c(F)c(F)cc(F)c2F)cc1 | 7 | 9 | 750 |
| NS(=O)(=O)c1ccc(CNS(=O)(=O)c2ccc(NC(=O)c3c(F)c(F)cc(F)c3F)cc2)cc1 |  | 15 | 6100 |
| NS(=O)(=O)c1ccc(NC(=O)c2c(F)c(F)cc(F)c2F)c(Cl)c1 | 16 | 76 | 1080 |
| NS(=O)(=O)c1ccc(NC(=O)c2c(F)c(F)cc(F)c2F)c(F)c1 | 24 | 1.5 | 760 |
| NS(=O)(=O)c1ccc(NC(=O)c2c(F)c(F)cc(F)c2F)c(Br)c1 | 4.8 | 84 | 1870 |
| NS(=O)(=O)c1ccc(CCNS(=O)(=O)c2ccc(NC(=O)c3c(F)c(F)cc(F)c3F)cc2)cc1 | 7.6 | 13 | 6000 |
